{"source": "patent US9809589B2", "about": "“Crystal form of compound used as mineralocorticoid receptor antagonist and preparation method therefor” (KBP BIOSCIENCES CO., LTD., priority 2012, dated 2017)", "origin": "cited, not measured here", "key": {"androgen receptor": {"target": "T1, androgen receptor (Homo sapiens, UniProt P10275)", "T1 sequence (P10275 1-920)": "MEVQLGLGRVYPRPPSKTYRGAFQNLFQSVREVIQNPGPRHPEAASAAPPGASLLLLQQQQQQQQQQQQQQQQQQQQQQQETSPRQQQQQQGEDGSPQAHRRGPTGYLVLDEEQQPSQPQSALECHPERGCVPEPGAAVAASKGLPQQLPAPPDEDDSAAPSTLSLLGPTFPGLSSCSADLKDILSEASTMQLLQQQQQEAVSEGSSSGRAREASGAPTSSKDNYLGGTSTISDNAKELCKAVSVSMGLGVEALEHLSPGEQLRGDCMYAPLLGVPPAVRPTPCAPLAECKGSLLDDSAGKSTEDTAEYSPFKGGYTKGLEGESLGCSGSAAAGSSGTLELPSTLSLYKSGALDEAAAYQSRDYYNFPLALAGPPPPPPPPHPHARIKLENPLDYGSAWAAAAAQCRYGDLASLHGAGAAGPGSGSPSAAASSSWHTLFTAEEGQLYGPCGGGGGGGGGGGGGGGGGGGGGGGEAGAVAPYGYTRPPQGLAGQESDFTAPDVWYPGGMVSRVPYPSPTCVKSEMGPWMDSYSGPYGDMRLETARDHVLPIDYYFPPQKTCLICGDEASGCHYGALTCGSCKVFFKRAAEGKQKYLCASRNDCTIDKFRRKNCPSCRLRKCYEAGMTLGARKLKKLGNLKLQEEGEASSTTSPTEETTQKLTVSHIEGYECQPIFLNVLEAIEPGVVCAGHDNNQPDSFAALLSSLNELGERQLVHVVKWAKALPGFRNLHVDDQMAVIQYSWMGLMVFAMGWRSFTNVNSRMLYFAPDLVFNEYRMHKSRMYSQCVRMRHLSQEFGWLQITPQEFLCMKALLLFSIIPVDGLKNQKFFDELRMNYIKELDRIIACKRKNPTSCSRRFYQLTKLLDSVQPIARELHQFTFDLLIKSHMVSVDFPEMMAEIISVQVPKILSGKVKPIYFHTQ", "conditions": "relative to mineralocorticoid receptor; WO2012022121; cited from earlier work"}, "[1]": {"target": "T2, mineralocorticoid receptor (Homo sapiens, UniProt P08235)", "T2 sequence (P08235 1-984)": "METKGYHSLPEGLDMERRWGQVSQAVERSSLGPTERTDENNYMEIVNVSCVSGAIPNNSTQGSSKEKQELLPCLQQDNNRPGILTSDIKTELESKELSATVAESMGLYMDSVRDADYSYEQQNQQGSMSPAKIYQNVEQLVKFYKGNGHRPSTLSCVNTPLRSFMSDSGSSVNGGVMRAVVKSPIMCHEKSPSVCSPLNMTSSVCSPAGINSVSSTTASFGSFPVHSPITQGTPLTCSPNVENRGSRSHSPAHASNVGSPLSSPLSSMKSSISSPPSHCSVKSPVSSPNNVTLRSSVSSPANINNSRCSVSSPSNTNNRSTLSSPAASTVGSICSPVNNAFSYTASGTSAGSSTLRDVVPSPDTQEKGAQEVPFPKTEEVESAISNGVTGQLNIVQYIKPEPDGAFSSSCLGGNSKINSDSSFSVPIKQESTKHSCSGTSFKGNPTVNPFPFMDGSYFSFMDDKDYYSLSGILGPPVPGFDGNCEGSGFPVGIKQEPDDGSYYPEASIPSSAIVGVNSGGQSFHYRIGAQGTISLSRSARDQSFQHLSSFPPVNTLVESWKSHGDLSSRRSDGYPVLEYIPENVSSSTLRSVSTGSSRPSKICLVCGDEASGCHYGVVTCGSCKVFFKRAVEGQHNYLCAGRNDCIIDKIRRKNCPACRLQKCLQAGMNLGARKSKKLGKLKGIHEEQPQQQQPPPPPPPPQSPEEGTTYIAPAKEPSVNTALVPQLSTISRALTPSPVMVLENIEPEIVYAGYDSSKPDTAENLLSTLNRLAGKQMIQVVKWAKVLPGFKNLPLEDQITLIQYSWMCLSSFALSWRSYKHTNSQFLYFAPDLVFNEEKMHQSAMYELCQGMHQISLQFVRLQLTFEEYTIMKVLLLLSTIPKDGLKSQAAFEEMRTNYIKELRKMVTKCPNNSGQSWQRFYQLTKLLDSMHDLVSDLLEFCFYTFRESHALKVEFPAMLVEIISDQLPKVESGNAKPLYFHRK", "conditions": "as disclosed in WO2012022121; cited from earlier work"}, "glucocorticoid receptor": {"target": "T3, glucocorticoid receptor (Homo sapiens, UniProt P04150)", "T3 sequence (P04150 1-777)": "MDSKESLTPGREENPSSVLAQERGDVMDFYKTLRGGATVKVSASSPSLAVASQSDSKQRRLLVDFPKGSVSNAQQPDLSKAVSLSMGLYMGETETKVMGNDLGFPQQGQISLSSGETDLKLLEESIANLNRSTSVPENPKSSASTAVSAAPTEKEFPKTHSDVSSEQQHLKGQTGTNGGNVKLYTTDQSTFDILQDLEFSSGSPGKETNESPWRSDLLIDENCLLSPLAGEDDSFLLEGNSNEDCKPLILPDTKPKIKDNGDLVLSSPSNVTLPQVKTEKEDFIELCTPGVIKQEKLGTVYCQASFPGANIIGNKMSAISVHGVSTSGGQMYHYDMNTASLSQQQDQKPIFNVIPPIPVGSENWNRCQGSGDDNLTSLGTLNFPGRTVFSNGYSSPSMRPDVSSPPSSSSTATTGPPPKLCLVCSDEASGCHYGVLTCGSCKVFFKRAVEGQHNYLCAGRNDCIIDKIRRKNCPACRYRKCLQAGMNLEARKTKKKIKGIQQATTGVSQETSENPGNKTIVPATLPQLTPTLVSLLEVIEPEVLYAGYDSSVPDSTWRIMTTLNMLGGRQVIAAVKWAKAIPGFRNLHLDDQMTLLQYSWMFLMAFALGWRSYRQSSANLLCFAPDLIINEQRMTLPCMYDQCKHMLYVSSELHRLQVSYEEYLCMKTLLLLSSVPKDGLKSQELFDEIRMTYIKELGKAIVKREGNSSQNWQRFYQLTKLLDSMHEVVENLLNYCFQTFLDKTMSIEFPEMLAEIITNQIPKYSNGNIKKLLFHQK", "conditions": "relative to mineralocorticoid receptor; WO2012022121; cited from earlier work"}}}
{"smiles": "N#Cc1ccc(N2N=C3c4ccc(C(=O)N5CCC(O)CC5)nc4CC[C@@H]3[C@@H]2C2CCCC2)cc1Cl", "note": "[compound represented by Formula (1), 2-chloro-4-[(3S,3aR)-3-cyclopentyl-7-(4-hydroxypiperidin-1-carbonyl)-3,3a,4,5-tetrahydro-2H-pyrazolo[3,4-f]quinolin-2-yl]benzonitrile]", "values": [{"measurement": "Affinity to the androgen receptor", "setting": "androgen receptor", "result": "lower affinity"}, {"measurement": "Binding to the mineralocorticoid receptor", "setting": "[1]", "result": "selectively bind to the mineralocorticoid receptor"}, {"measurement": "Affinity to the glucocorticoid receptor", "setting": "glucocorticoid receptor", "result": "lower affinity"}]}
